Test results as given in ChEMBL document CHEMBL5724914, “Linking interpersonal differences in gut microbiota composition and drug biotransformation activity” (2024).

Experiments:
[1] = (§1) The drug is tested on Z-011 corresponding to mouse gut metagenome with ENA study accession number: PRJEB37062 and ENA sample accession number: ERS12561811 for biotransformation under anaerobic condition. The drug concentrations were measured over 9 timepoints collected between 0 and 24 hours of incubation by liquid-chromatography-coupled mass spectrometry (LC–MS); conditions: 2 µM
[2] = as §1, with “WLS-170” for “Z-011”, “human” for “mouse”, “ERS12561762” for “ERS12561811”; conditions: 2 µM
[3] = human gut metagenome, 24 h, 2 µM
[4] = human gut metagenome, 24 h, 2 µM; remark: listed apart in the source
[5] = human gut metagenome, 24 h, 2 µM; remark: listed apart in the source
[6] = human gut metagenome, 24 h, 2 µM; remark: listed apart in the source
[7] = as §1, with “Z-014” for “Z-011”, “rat” for “mouse”, “ERS12561814” for “ERS12561811”; conditions: 2 µM
[8] = human gut metagenome, 24 h, 2 µM; remark: listed apart in the source
[9] = human gut metagenome, 24 h, 2 µM; remark: listed apart in the source
[10] = human gut metagenome, 24 h, 2 µM; remark: listed apart in the source
[11] = as §1, with “Z-029” for “Z-011”, “rat” for “mouse”, “ERS12561828” for “ERS12561811”; conditions: 2 µM
[12] = as §1, with “WLS-220” for “Z-011”, “human” for “mouse”, “ERS12561769” for “ERS12561811”; conditions: 2 µM
[13] = as §1, with “WLS-069” for “Z-011”, “human” for “mouse”, “ERS12561748” for “ERS12561811”; conditions: 2 µM
[14] = as §1, with “WLS-027” for “Z-011”, “human” for “mouse”, “ERS12561744” for “ERS12561811”; conditions: 2 µM
[15] = as §1, with “Z-006” for “Z-011”, “ERS12561806” for “ERS12561811”; conditions: 2 µM
[16] = human gut metagenome, 24 h, 2 µM; remark: listed apart in the source
[17] = as §1, with “WLS-039” for “Z-011”, “human” for “mouse”, “ERS12561746” for “ERS12561811”; conditions: 2 µM
[18] = as §1, with “Z-002” for “Z-011”, “rabbit” for “mouse”, “ERS12561802” for “ERS12561811”; conditions: 2 µM
[19] = as §1, with “Z-008” for “Z-011”, “to” for “to mouse gut”, “ERS12561808” for “ERS12561811”; conditions: 2 µM
[20] = human gut metagenome, 24 h, 2 µM; remark: listed apart in the source
Also: call rule not given here.

SMILES	Bacterial Biotransformation [1]	Bacterial Biotransformation [2]	Bacterial Biotransformation [3]	Bacterial Biotransformation [4]	Bacterial Biotransformation [5]	Bacterial Biotransformation [6]	Bacterial Biotransformation [7]	Bacterial Biotransformation [8]	Bacterial Biotransformation [9]	Bacterial Biotransformation [10]	Bacterial Biotransformation [11]	Bacterial Biotransformation [12]	Bacterial Biotransformation [13]	Bacterial Biotransformation [14]	Bacterial Biotransformation [15]	Bacterial Biotransformation [16]	Bacterial Biotransformation [17]	Bacterial Biotransformation [18]	Bacterial Biotransformation [19]	Bacterial Biotransformation [20]
CCCc1nc2c(C)cc(-c3nc4ccccc4n3C)cc2n1Cc1ccc(-c2ccccc2C(=O)O)cc1	Compound metabolized	Compound metabolized	Compound NOT metabolized	Compound metabolized	Compound metabolized	Compound metabolized	Compound metabolized	Compound metabolized	Compound metabolized	Compound metabolized	Compound NOT metabolized	Compound metabolized	Compound metabolized	Compound metabolized	Compound metabolized	Compound metabolized	Compound metabolized	Compound metabolized	Compound metabolized	Compound NOT metabolized
CCCCC(=O)N(Cc1ccc(-c2ccccc2-c2nnn[nH]2)cc1)[C@H](C(=O)O)C(C)C	Compound NOT metabolized	Compound metabolized	Compound metabolized	Compound metabolized	Compound metabolized	Compound metabolized	Compound NOT metabolized	Compound metabolized	Compound NOT metabolized	Compound metabolized	Compound NOT metabolized	Compound NOT metabolized	Compound metabolized	Compound metabolized	Compound NOT metabolized	Compound metabolized	Compound metabolized	Compound NOT metabolized	Compound NOT metabolized	Compound NOT metabolized
Cc1cc2c(cc1S(N)(=O)=O)S(=O)(=O)CCC2	Compound NOT metabolized	Compound NOT metabolized	Compound NOT metabolized	Compound NOT metabolized	Compound NOT metabolized	Compound NOT metabolized	Compound NOT metabolized	Compound NOT metabolized	Compound NOT metabolized	Compound NOT metabolized	Compound NOT metabolized	Compound NOT metabolized	Compound NOT metabolized	Compound NOT metabolized	Compound NOT metabolized	Compound NOT metabolized	Compound NOT metabolized	Compound NOT metabolized	Compound NOT metabolized	Compound NOT metabolized
CN1CCc2c(c3ccccc3n2Cc2ccccc2)C1.CN1CCc2c(c3ccccc3n2Cc2ccccc2)C1.O=S(=O)(O)c1cccc2c(S(=O)(=O)O)cccc12	Compound NOT metabolized	Compound metabolized	Compound NOT metabolized	Compound metabolized	Compound NOT metabolized	Compound metabolized	Compound NOT metabolized	Compound NOT metabolized	Compound NOT metabolized	Compound metabolized	Compound NOT metabolized	Compound metabolized	Compound NOT metabolized	Compound metabolized	Compound NOT metabolized	Compound NOT metabolized	Compound metabolized	Compound NOT metabolized	Compound NOT metabolized	Compound NOT metabolized
COc1ccc(CCN(C)CCCC(C#N)(c2ccc(OC)c(OC)c2)C(C)C)cc1OC (stereo not given)	Compound NOT metabolized	Compound metabolized	Compound metabolized	Compound metabolized	Compound metabolized	Compound metabolized	Compound NOT metabolized	Compound metabolized	Compound NOT metabolized	Compound metabolized	Compound NOT metabolized	Compound metabolized	Compound metabolized	Compound metabolized	Compound NOT metabolized	Compound metabolized	Compound metabolized	Compound metabolized	Compound NOT metabolized	Compound NOT metabolized
CN1CC(=O)N2[C@H](c3ccc4c(c3)OCO4)c3[nH]c4ccccc4c3C[C@@H]2C1=O	Compound NOT metabolized	Compound metabolized	Compound metabolized	Compound NOT metabolized	Compound metabolized	Compound metabolized	Compound NOT metabolized	Compound metabolized	Compound NOT metabolized	Compound metabolized	Compound NOT metabolized	Compound metabolized	Compound metabolized	Compound metabolized	Compound NOT metabolized	Compound NOT metabolized	Compound NOT metabolized	Compound metabolized	Compound NOT metabolized	Compound metabolized
COc1cc2nc(N(C)CCCNC(=O)C3CCCO3)nc(N)c2cc1OC (stereo not given) [ALFUZOSIN]	Compound metabolized	Compound metabolized	Compound metabolized	Compound metabolized	Compound metabolized	Compound metabolized	Compound NOT metabolized	Compound metabolized	Compound NOT metabolized	Compound metabolized	Compound NOT metabolized	Compound metabolized	Compound metabolized	Compound NOT metabolized	Compound NOT metabolized	Compound NOT metabolized	Compound NOT metabolized	Compound metabolized	Compound NOT metabolized	Compound NOT metabolized
